Laboratory results taken from patent US10905738B2, “Synthetic peptides, prodrugs, pharmaceutical compositions and uses” (Biozeus Desenvolvimento De Produtos Biofarmacêuticos, priority 2018, dated 2021).
Where a SMILES comes first, the peptide text is derived from it.

Assays:
[1] = system: smooth muscle of tracheal rings; test: spasmodic contraction of tracheal rings ex vivo (histamine-induced); parameters: species or system Dunkin-Hartley guinea pigs; details: for Effectiveness (Emax) (%): relaxation of tracheal rings contracted by histamine (50 μM); for Effectiveness (Emax) (%) / Potency (pEC50) Molar: mean±SEM; for Potency (pEC50) Molar: tracheal rings contracted by histamine (50 μM), peptides 0.01 to 10 μM
Protocol: The magnitude of the relaxing effect of the peptides was evaluated by means of a model of spasmodic contraction of tracheal rings ex vivo, largely employed to test new bronchodilating agents (see CULLUM, V. A., FARMER, J. B., JACK, D., LEVY, G. P. Salbutamol: a new, selective β-adrenoceptive receptor stimulant. British journal of pharmacology, 35(1): 141-151. 1969; KAO, C. H., CHU, Y. H., WANG, H. W. Effects of lidocaine on rat's isolated tracheal smooth muscle. European Archives of Oto-Rhino-Laryngology, 267(5): 817-820. 2010; SORIANO-URSÚA, M. A., VALENCIA-HERNÁNDEZ, I., ARELLANO-MENDOZA, M. G., CORREA-BASURTO, J., TRUJILLO-FERRARA, J. G. Synthesis, pharmacological and in silico evaluation of 1-(4-dihydroxy-3, 5-dioxa-4-borabycyclo [4.4.0] deca-7,9,11-trien-9-yl)-2-(tert-butylamine) ethanol, a compound designed to act as a β2 adrenoceptor agonist. European journal of medicinal chemistry, 44(7): 2840-2846. 2009).
For each test, Dunkin-Hartley guinea pigs (400-500 g) were euthanized in a CO2 atmosphere; subsequently, the trachea was exposed, removed and sectioned in segments of 1 to 3 cartilaginous tracheal rings. Each segment was transferred to an individual organ bath system containing Krebs nutritive solution (NaCl 118 mM; KCl […]; CaCl2) 2.5 mM; MgSO4 1.2 mM; KH2PO4 1.2 mM; NaHCO324 mM; glucose 11 mM) at 37° C., under constant aeration with a carbogenic mixture (95% of O2 and 5% of CO2). In each system, a stem fixed to the base of the container and another connected to an isometric transducer (GRASS FT-03) made up the support of the fragments. A data digitizing system connected to the isometric transducer allowed the recording of tension variations produced by the contraction of the tracheal rings (PowerLab™ 16/30, LabChart, version 8.1, AD Instruments, Australia). The basal tension was adjusted to 1 g, and subsequently, the contractility of the fragments was evaluated by a stimulus with carbachol (2.5 μM). After 1 h at rest, the basal tension was recovered and the tissues were subjected to contraction induced by histamine (50 μM) followed by exposure to increasing concentrations of the treatments (0.01 to 10 μM; n=8) or the comparator PnTx(19).
Table 1 lists the mean±SEM of the potency values, shown as the negative logarithm of the concentration that reduced the voltage to 50% of the maximum Histamine-induced contraction (pEC50), and efficacy (Emax), calculated from at least 8 independent tests using the sigmoid nonlinear regression equation of the software Graph Prism 5.0 (GraphPad Software, La Jolla, Ca, USA).

[2] = system: cavernosal strips; test: relaxation induced by electric stimuli in cavernosal strips pre-contracted with phenylephrine ex vivo; parameters: species or system rats of Sprague Dawley (SD) lineage; details: peptides 10^−10 M; 10^−8 M; 10^−6 M; FIG. 3
Protocol: The relaxing potential of the peptides of the present invention on the smooth muscles of cavernous strips was evaluated ex vivo using tissue isolated from rats, a model that is largely used to test drug candidates for the treatment of ED (ITALIANO, G., CALABRÒ, A., PAGANO, F. A simplified in vitro preparation of the corpus cavernosum as a tool for investigating erectile pharmacology in the rat. Pharmacological research, 30(4): 325-334. 1994; GEMALMAZ, H., WALDECK, K., CHAPMAN, T. N., TUTTLE, J. B., STEERS, W. D., ANDERSSON, K E. In vivo and in vitro investigation of the effects of sildenafil on rat cavernous smooth muscle. The Journal of Urology, 165(3): 1010-1014.2001).
Male rats of Sprague Dawley (SD) lineage were sacrificed by guillotine; the penises were removed surgically and placed on a Petri dish containing Krebs—bicarbonate solution (NaCl 118.1 mM; KCl 4.7 mM; KH2PO4 1.0 mM; MgSO4 1.0 mM; NaHCO3 25.0 mM; CaCl2) 2.5 mM and Glucose 11.1 mM). The corpus cavernosum were dissected by removing the glans, urethra, spongeous body and dorsal vein, and then separated by cutting the fibrous septum between them. Cavernosal strips measuring 2×2×7 mm were mounted separately in a bath for isolated organs containing bicarbonate solution-Krebs (pH 7.4) at 37° C., aerated with 95% of O02 and 5% of CO2. The tissue was connected to a tension transducer and the changes in tension were continuously registered. The cavernosal strips were contracted with phenylephrine (10^−5 M) and subsequently relaxed by electrical stimulation at different frequencies (1 to 32 Hz). […] Differences in the percentage of relaxation between treatment and control were evaluated with regard to statistical significance by means of two-way variance analysis (Two-Way ANOVA) followed by Bonferroni post-test. For the comparison between the treatments and control in light of the stimulation in a single frequency, the results were evaluated by one-way analysis variance (One-Way ANOVA) followed by Bonferroni post-test. […]

[3] = system: house dust mite (HDM) sensitized A/J mice; format: in vivo, Male A/J mice; details: 10 nMol and 30 nMol per animal, 6 h after intratracheal instillation
Protocol: Male A/J mice (18-20 g), were sensitized by house dust mite (HDM) to established acute allergic asthma according to the protocol of Haspelagh et al (HASPESLAGH, E., DEBEUF, N., HAMMAD, H., LAMBRECHT, B. N. Murine Models of Allergic Asthma. Methods Mol Biol, 1559:121-136. 2017). Inflammatory cell infiltrations in the bronchoalveolar lavage fluid (BALF) were analyzed by flow cytometry.
The mice (n=5 per group) were treated with vehicle (PBS), SEQ ID NO: 19, SEQ ID NO: 24 or PnTx(19), at doses of 10 nMol and 30 nMol per animal, by intratracheal instillation, and material were collected 6 hours post-challenge.

Compound | Effectiveness (Emax) (%) [1] [%] | Potency (pEC50) Molar [1] [Molar] | enhancing effect on relaxation induced by electric stimuli in strips of cavernous body contracted by phenylephrine [2] | neutrophil accumulation in the bronchoalveolar space [3] | relaxing effect on airway (tracheal ring) smooth muscle, in words ([1]; histamine-induced contraction ex vivo)
CC[C@H](C)[C@H](NC(=O)[C@H](Cc1c[nH]c2ccccc12)NC(=O)[C@H](Cc1ccccc1)NC(C)=O)C(=O)N[C@@H](C)C(=O)N[C@@H](Cc1c[nH]c2ccccc12)C(=O)N[C@@H](Cc1ccc(O)cc1)C(=O)N[C@@H](CCCCN)C(=O)N[C@@H](CC(C)C)C(=O)N[C@@H](C)C(N)=O [SEQ ID NO: 19, Ac-Phe-Trp-Ile-Ala-Trp-Tyr-Lys-Leu-Ala-NH2] (Ac-FWIAWYKLA-NH2) | 40.0 ± 3.4 | 7.3 ± 0.4 | enhancing effect | did not induce neutrophil accumulation | 
CC[C@H](C)[C@H](NC(C)=O)C(=O)N[C@@H](C)C(=O)N[C@@H](Cc1c[nH]c2ccccc12)C(=O)N[C@@H](Cc1ccc(O)cc1)C(=O)N[C@@H](CCCCN)C(N)=O [SEQ ID NO: 24, Ac-Ile-Ala-Trp-Tyr-Lys-NH2] (Ac-IAWYK-NH2) | 29.0 ± 1.0 | 7.9 ± 0.3 | enhancing effect | did not induce neutrophil accumulation | effective
